Laboratory results from patent US12685790B2, “Stable, concentrated radiopharmaceutical composition” (NOVARTIS AG, priority 2019, dated 2026).

Experiments:
GRPR = GRPR (Homo sapiens, UniProt P30550); conditions: non-clinical models; cited from earlier work
[1] = biological target: GRPR expressed in breast, prostate, and Gastro Intestinal Stromal Tumor (GIST) (Homo sapiens, UniProt P30550); conditions: non-clinical models; cited from earlier work
[2] = Radiochemical purity (RCP) stability of 177Lu-NeoB drug product formulations over shelf life (72 h), lab-scale batches; assay type: physicochemical; conditions: Table 7: gentisic acid 1000 μg/mL, ascorbic acid 15000 μg/mL, Kolliphor HS 15 100 μg/mL, about 200 mCi, 10 mCi/mL; end of shelf life (72 hours)
Protocol: “Radiochemical purity”: is that percentage of the stated radionuclide that is present in the stated chemical or biological form. Radiochromatography methods, such as HPLC method or instant Thin Layer Chromatography method (ITLC), are the most commonly accepted methods for determining radiochemical purity in the nuclear pharmacy.
The stability of the ^177Lu-labelled product over 72 hours with the same antioxidant amount present in the Lutathera formulation. In particular, the following conditions are reproduced: […] step; • Kolliphor HS 15:1 mg added before the labelling step; • Peptide: Lu ratio≥1.5; […] during the formulation step; • Final volumetric Activity 10 mCi/mL; • Final pH 4-6; • Reaction buffer: Acetic acid/acetate buffer;
The radiolabelling tests are carried out both manually and automatically by using the MiniAlO synthesizer. The synthesis procedure is developed as follows: • 1. Transferring of ^177LuCl3 into reactor; • 2. Transferring of the reaction buffer into reactor. The reaction buffer is composed of sodium acetate buffer and gentisic acid. The acetate buffer allows to maintain the labelling pH between 4-5, while the gentisic acid protects the peptide from radiolysis during the labelling step; • 3. Addition of the NeoB1 solution containing Kolliphor HS 15 into reactor; • 4. Heating at 95° C. for 5 minutes; […]

GRPR expressed in breast, prostate, and Gastro Intestinal Stromal Tumor (GIST), sequence (P30550 whole entry): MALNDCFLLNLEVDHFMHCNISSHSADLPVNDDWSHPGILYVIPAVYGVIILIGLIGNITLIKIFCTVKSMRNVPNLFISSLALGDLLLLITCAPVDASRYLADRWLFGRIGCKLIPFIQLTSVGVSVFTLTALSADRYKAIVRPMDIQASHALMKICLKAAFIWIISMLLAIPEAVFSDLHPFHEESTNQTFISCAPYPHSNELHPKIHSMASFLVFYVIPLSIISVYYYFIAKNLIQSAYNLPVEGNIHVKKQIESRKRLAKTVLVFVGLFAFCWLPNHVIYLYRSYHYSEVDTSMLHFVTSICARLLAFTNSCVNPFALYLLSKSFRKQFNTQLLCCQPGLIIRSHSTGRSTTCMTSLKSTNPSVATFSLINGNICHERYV
GRPR, sequence (P30550 whole entry): as above

SMILES	degree of internalization upon binding to the specific receptor (GRPR)	affinity to the GRPR [1]	Radiochemical purity (%) at end of shelf life [2]
CC(C)CC(CC(C)C)NC(=O)[C@H](Cc1cnc[nH]1)NC(=O)CNC(=O)[C@@H](NC(=O)[C@H](C)NC(=O)[C@H](Cc1c[nH]c2ccccc12)NC(=O)[C@H](CCC(N)=O)NC(=O)[C@@H](Cc1ccccc1)NC(=O)COCC(=O)Nc1ccc(CNC(=O)CN2CCN(CC(=O)O)CCN(CC(=O)O)CCN(CC(=O)O)CC2)cc1)C(C)C [[^68Ga]-NeoB, metal not drawn]	low degree of internalization	high affinity	
CC(C)CC(CC(C)C)NC(=O)[C@H](Cc1cnc[nH]1)NC(=O)CNC(=O)[C@@H](NC(=O)[C@H](C)NC(=O)[C@H](Cc1c[nH]c2ccccc12)NC(=O)[C@H](CCC(N)=O)NC(=O)[C@@H](Cc1ccccc1)NC(=O)COCC(=O)Nc1ccc(CNC(=O)CN2CCN(CC(=O)O)CCN(CC(=O)O)CCN(CC(=O)O)CC2)cc1)C(C)C [[^177Lu]-NeoB, metal not drawn]			over 95%
